{
  "source": "ChEMBL document CHEMBL5500403",
  "about": "“Discovery of a Double-Stapled Short Peptide as a Long-Acting HIV-1 Inactivator with Potential for Oral Bioavailability” (J Med Chem, 2024)",
  "key": {"[1]": {"tested_on": "Human immunodeficiency virus 1", "assay": "Antiviral activity against HIV-1 IIIB infected in human MT2 cells assessed as inhibition of viral growth pretreated with virus for 30 mins followed by infection with cells incubated for 72 hrs by ELISA", "assay_type": "functional, organism-based", "settings": "Human immunodeficiency virus 1, IIIB"}, "[2]": {"assay": "Cytotoxicity against human MT2 cells", "assay_type": "toxicity, cell-based"}, "[3]": {"tested_on": "Human immunodeficiency virus 1", "assay": "Antiviral activity against HIV-1 Bal-R5 assessed as reduction in viral growth by measuring p24 antigen level incubated for 2 hrs by ELISA", "assay_type": "functional, organism-based", "settings": "Human immunodeficiency virus 1, Bal-R5, 2 h"}, "[4]": {"tested_on": "Human immunodeficiency virus 1", "assay": "Antiviral activity against T20-resistant HIV-1 NL4-3 harboring […] N38A and N42T mutant infected in human MT2 cells assessed as inhibition of viral growth pretreated with virus for 30 mins followed by infection with cells incubated for 72 hrs by ELISA", "assay_type": "functional, organism-based"}, "[5]": {"tested_on": "Human immunodeficiency virus 1", "assay": "Antiviral activity against T20-resistant HIV-1 NL4-3 harboring […] N42T and N43K mutant infected in human MT2 cells assessed as inhibition of viral growth pretreated with virus for 30 mins followed by infection with cells incubated for 72 hrs by ELISA", "assay_type": "functional, organism-based"}, "[6]": {"tested_on": "Human immunodeficiency virus 1", "assay": "Antiviral activity against T20-resistant HIV-1 NL4-3 harboring […] V38E and N42S mutant assessed as reduction in viral growth by measuring p24 antigen level incubated for 2 hrs by ELISA", "assay_type": "functional, organism-based"}, "[7]": {"tested_on": "Human immunodeficiency virus 1", "assay": "Antiviral activity against T20-resistant HIV-1 NL4-3 harboring […] N38A and N42T mutant assessed as reduction in viral growth by measuring p24 antigen level incubated for 2 hrs by ELISA", "assay_type": "functional, organism-based"}, "[8]": {"tested_on": "Human immunodeficiency virus 1", "assay": "Antiviral activity against T20-resistant HIV-1 NL4-3 harboring […] N42T and N43K mutant assessed as reduction in viral growth by measuring p24 antigen level incubated for 2 hrs by ELISA", "assay_type": "functional, organism-based"}, "[9]": {"assay": "MRT in Sprague-Dawley rat at 1 mg/kg,iv administration measured upto 9 days by LC-MS/MS analysis", "assay_type": "ADME, organism-based", "settings": "in vivo, time < 9 day"}, "[10]": {"assay": "Elimination half life in Sprague-Dawley rat at 10 mg/kg,iv administration measured upto 9 days by LC-MS/MS analysis", "assay_type": "ADME, organism-based", "settings": "in vivo, time < 9 day, read-out: beta t1/2"}, "chymotrypsin": {"target": "chymotrypsin (Homo sapiens, UniProt P17538+P40313+Q6GPI1+Q99895)", "assay": "Proteolytic stability assessed as Chymotrypsin (unknown origin) mediated compound degradation by measuring parent compound remaining incubated for 2 hrs by LC-MS/MS analysis", "assay_type": "ADME, protein assay", "settings": "read-out: Stability"}, "[11]": {"assay": "Proteolytic stability assessed as Pepsin (unknown origin) mediated compound degradation incubated for 4 hrs by LC-MS/MS analysis", "assay_type": "ADME", "settings": "human"}, "[12]": {"assay": "Stability in Sprague-Dawley rat liver microsomes in presence of NADPH by LC-MS/MS analysis", "assay_type": "ADME, Microsome"}, "[13]": {"assay": "Stability in human liver microsomes in presence of NADPH by LC-MS/MS analysis", "assay_type": "ADME, Microsome"}, "[14]": {"assay": "Drug concentration in Sprague-Dawley rat plasma at 50 mg/kg,po administrated for 5 days by LC-MS/MS analysis", "assay_type": "ADME, organism-based", "settings": "in vivo, 120 h, time 5 day"}, "[15]": {"assay": "Biodistribution in Sprague-Dawley rat testis assessed as fold increase in AUC at 1 mg/kg,iv administration measured after 12 days by LC-MS/MS analysis", "assay_type": "ADME, organism-based", "settings": "in vivo, 288 h, time 12 day"}, "[16]": {"assay": "Biodistribution in Sprague-Dawley rat spleen assessed as fold increase in AUC at 1 mg/kg,iv administration measured after 12 days by LC-MS/MS analysis", "assay_type": "ADME, organism-based", "settings": "in vivo, 288 h, time 12 day"}, "[17]": {"assay": "Biodistribution in Sprague-Dawley rat intestine assessed as fold increase in AUC at 1 mg/kg,iv administration measured after 12 days by LC-MS/MS analysis", "assay_type": "ADME, organism-based", "settings": "in vivo, 288 h, time 12 day"}, "ACH-2 cell line [18]": {"tested_on": "ACH-2 cell line", "assay": "Cytotoxicity against chidamide reactivated human ACH-2 cell line infected with latent HIV-1 assessed as reduction in cell viability at 1.25 to 5 uM", "assay_type": "functional, cell-based", "settings": "dose 1.25-5 µM"}, "ACH-2 cell line [19]": {"tested_on": "ACH-2 cell line", "assay": "Cytotoxicity against chidamide non-reactivated human ACH-2 cell line infected with latent HIV-1 assessed as reduction in cell viability at 1.25 to 5 uM", "assay_type": "functional, cell-based", "settings": "dose 1.25-5 µM"}, "[20]": {"assay": "Toxicity in male BALB/c mouse assessed as change in body weight at 20 mg/kg,iv administration measured upto 14 days", "assay_type": "organism-based", "settings": "in vivo, 336 h, time < 14 day"}, "[21]": {"assay": "Toxicity in male BALB/c mouse assessed as change in body weight at 100 mg/kg,iv administration measured upto 14 days", "assay_type": "organism-based", "settings": "in vivo, 336 h, time < 14 day"}, "[22]": {"assay": "Toxicity in female BALB/c mouse assessed as change in body weight at 20 mg/kg,iv administration measured upto 14 days", "assay_type": "organism-based", "settings": "in vivo, 336 h, time < 14 day"}, "[23]": {"assay": "Toxicity in BALB/c mouse assessed as change in serum creatinine level at 20 mg/kg,iv administration measured upto 6 days", "assay_type": "organism-based", "settings": "in vivo, 144 h, time < 6 day"}, "[24]": {"assay": "Toxicity in BALB/c mouse assessed as change in serum creatinine level at 100 mg/kg,iv administration measured upto 6 days", "assay_type": "organism-based", "settings": "in vivo, 144 h, time < 6 day"}, "[25]": {"assay": "Toxicity in Sprague-Dawley rat assessed as change in body weight at 50 mg/kg,iv administration measured upto 14 days", "assay_type": "organism-based", "settings": "in vivo, 336 h, time < 14 day"}, "[26]": {"assay": "Toxicity in Sprague-Dawley rat assessed as histopathological change in liver at 50 mg/kg,iv administration measured after 14 days by hematoxylin and eosin staining based assay", "assay_type": "organism-based", "settings": "in vivo, 336 h, time 14 day"}, "[27]": {"assay": "Toxicity in Sprague-Dawley rat assessed as histopathological change in kidney at 50 mg/kg,iv administration measured after 14 days by hematoxylin and eosin staining based assay", "assay_type": "organism-based", "settings": "in vivo, 336 h, time 14 day"}, "[28]": {"assay": "Toxicity in Sprague-Dawley rat assessed as cell degeneration in liver at 50 mg/kg,iv administration measured after 14 days by hematoxylin and eosin staining based assay", "assay_type": "organism-based", "settings": "in vivo, 336 h, time 14 day"}, "[29]": {"assay": "Toxicity in Sprague-Dawley rat assessed as inflammatory cell infiltration in liver at 50 mg/kg,iv administration measured after 14 days by hematoxylin and eosin staining based assay", "assay_type": "organism-based", "settings": "in vivo, 336 h, time 14 day"}, "[30]": {"assay": "Toxicity in Sprague-Dawley rat assessed as cell degeneration in kidney at 50 mg/kg,iv administration measured after 14 days by hematoxylin and eosin staining based assay", "assay_type": "organism-based", "settings": "in vivo, 336 h, time 14 day"}, "[31]": {"assay": "Toxicity in Sprague-Dawley rat assessed as change in serum ALT level at 50 mg/kg,iv administration measured upto 6 days", "assay_type": "organism-based", "settings": "in vivo, 144 h, time < 6 day"}, "[32]": {"assay": "Toxicity in Sprague-Dawley rat assessed as change in serum creatinine level at 50 mg/kg,iv administration measured upto 6 days", "assay_type": "organism-based", "settings": "in vivo, 144 h, time < 6 day"}, "[33]": {"tested_on": "Human immunodeficiency virus 1", "assay": "Binding affinity to cytoplasmic LLP1 domain of HIV-1 GP41 by ELISA"}, "[34]": {"tested_on": "Human immunodeficiency virus 1", "assay": "Binding affinity to cytoplasmic LLP1 domain of HIV-1 GP41 assessed as binding constant by isothermal titration calorimetry"}, "[35]": {"tested_on": "Human immunodeficiency virus 1", "assay": "Binding affinity to cytoplasmic LLP1 domain of HIV-1 GP41 assessed as change in entropy by isothermal titration calorimetry"}, "[36]": {"tested_on": "Human immunodeficiency virus 1", "assay": "Antiviral activity against HIV-1 IIIB infected in human MT2 cells assessed as inhibition of viral growth at 5 uM preincubation of compound with 20% HSA", "assay_type": "functional, organism-based"}, "[37]": {"tested_on": "Human immunodeficiency virus 1", "assay": "Antiviral activity against HIV-1 Bal-R5 infected in human CEMx174 5.25M7 cells assessed as inhibition of viral growth pretreated with virus for 30 mins followed by infection with cells incubated for 72 hrs by ELISA", "assay_type": "functional, organism-based", "settings": "Human immunodeficiency virus 1, Bal-R5, CEMx174 5.25M7"}},
  "note": "Active and inactive are the calls of the source. The calls are words filed in the database; no cut-off is given here. Bridge positions count the residues as written; N and C are the ends. Square brackets hold non-standard residues; d marks the D form. Peptide text beside a SMILES is read from it. S5 = C=CCCC[C@](C)(N)C(=O)O",
  "data": [
    {"smiles": "CC(=O)NCC(=O)N[C@@]1(C)CCC/C=C\\CCC[C@@](C)(C(=O)N[C@@H](Cc2ccc(O)cc2)C(=O)N[C@@H](CC(C)C)C(=O)N[C@@]2(C)CCC/C=C\\CCC[C@@](C)(C(=O)N[C@@H](Cc3ccc(O)cc3)C(=O)N[C@@H](Cc3c[nH]c4ccccc34)C(N)=O)NC(=O)[C@H](CC(C)C)NC(=O)[C@H](CC(C)C)NC(=O)[C@H](CC(N)=O)NC2=O)NC(=O)[C@H](CC(C)C)NC(=O)[C@H](C)NC(=O)[C@H](CCC(=O)O)NC1=O", "note": "(Ac-G[S5]EAL[S5]YL[S5]NLL[S5]YW-NH2; staple (Z) 2-6, 9-13)", "values": [
      {"measurement": "IC50", "setting": "[1]", "value": 23.5, "unit": "nM"},
      {"measurement": "CC50", "setting": "[2]", "value": 5070, "unit": "nM"},
      {"measurement": "EC50", "setting": "[3]", "value": 36700, "unit": "nM"},
      {"measurement": "IC50", "setting": "[4]", "value": 12.2, "unit": "nM"},
      {"measurement": "IC50", "setting": "[5]", "value": 124, "unit": "nM"},
      {"measurement": "EC50", "setting": "[6]", "value": 50.6, "unit": "nM"},
      {"measurement": "EC50", "setting": "[7]", "value": 23.1, "unit": "nM"},
      {"measurement": "EC50", "setting": "[8]", "value": 114, "unit": "nM"},
      {"measurement": "MRT", "setting": "[9]", "value": 71.1, "unit": "h"},
      {"measurement": "half-life", "setting": "[10]", "value": "> 70", "unit": "h"},
      {"measurement": "remaining at 2 h", "setting": "chymotrypsin", "value": "> 56.8", "unit": "%"},
      {"measurement": "Stability", "setting": "[11]", "value": "Stable"},
      {"measurement": "Stability", "setting": "[12]", "value": "Stable"},
      {"measurement": "Stability", "setting": "[13]", "value": "Stable"},
      {"measurement": "Drug uptake", "setting": "[14]", "value": "Active"},
      {"measurement": "fold change (FC)", "setting": "[15]", "value": 15},
      {"measurement": "fold change (FC)", "setting": "[16]", "value": 10},
      {"measurement": "fold change (FC)", "setting": "[17]", "value": 10},
      {"measurement": "Activity", "setting": "ACH-2 cell line [18]", "value": "Active"},
      {"measurement": "Activity", "setting": "ACH-2 cell line [19]", "value": "inactive"},
      {"measurement": "Activity", "setting": "[20]", "value": "Non-Toxic"},
      {"measurement": "Activity", "setting": "[21]", "value": "Non-Toxic"},
      {"measurement": "Activity", "setting": "[22]", "value": "Non-Toxic"},
      {"measurement": "Activity", "setting": "[23]", "value": "Non-Toxic"},
      {"measurement": "Activity", "setting": "[24]", "value": "Non-Toxic"},
      {"measurement": "Activity", "setting": "[25]", "value": "Non-Toxic"},
      {"measurement": "Activity", "setting": "[26]", "value": "Non-Toxic"},
      {"measurement": "Activity", "setting": "[27]", "value": "Non-Toxic"},
      {"measurement": "Activity", "setting": "[28]", "value": "Non-Toxic"},
      {"measurement": "Activity", "setting": "[29]", "value": "Non-Toxic"},
      {"measurement": "Activity", "setting": "[30]", "value": "Non-Toxic"},
      {"measurement": "Activity", "setting": "[31]", "value": "Non-Toxic"},
      {"measurement": "Activity", "setting": "[32]", "value": "Non-Toxic"},
      {"measurement": "Activity", "setting": "[33]", "value": "Dose-Dependent Effect"},
      {"measurement": "K", "setting": "[34]", "value": "2.77 10^5/M"},
      {"measurement": "deltaS", "setting": "[35]", "value": -70.2, "unit": "cal/mol/deg"},
      {"measurement": "Activity", "setting": "[36]", "value": "Active"},
      {"measurement": "IC50", "setting": "[37]", "value": 180, "unit": "nM"}
    ]}
  ]
}
